Here are results for ten molecules from US12209145B2, “PCSK9 antagonist compounds” (Merck Sharp & Dohme LLC, priority 2018, dated 2025).

Starred links: 1 amine or outer side, 2 acyl side, 3 side chain; linkers in the order of their positions; H or OH if unused. Positions of bridges follow the written chain, without caps; N, C: chain ends. Non-standard residues stand in square brackets, D forms with d. Residues, ends and D or L forms follow the SMILES beside them. *: point of attachment. X1 = CC1(C)C(/C=C/C=C/C=C2\N(CCCS(=O)(=O)O)c3ccc(S(=O)(=O)O)cc3C2(C)CCCCCC(=O)*)=[N+](CCCS(=O)(=O)[O-])c2ccc(S(=O)(=O)O)cc21; Trp(5-F) = N[C@@H](Cc1c[nH]c2ccc(F)cc12)C(=O)O; mXylylene = c1cc(C[*:1])cc(C[*:2])c1; αMeP = C[C@@]1(C(=O)O)CCCN1; Mpa = O=C(O)CCS

Holding throughout (assay type): binding
Experiment [1] deals with T1, PCSK9 (Homo sapiens, UniProt Q8NBP7).
T1 construct: Biotinylated PCSK9 was obtained commercially; purchased
T1 sequence (Q8NBP7 153-692): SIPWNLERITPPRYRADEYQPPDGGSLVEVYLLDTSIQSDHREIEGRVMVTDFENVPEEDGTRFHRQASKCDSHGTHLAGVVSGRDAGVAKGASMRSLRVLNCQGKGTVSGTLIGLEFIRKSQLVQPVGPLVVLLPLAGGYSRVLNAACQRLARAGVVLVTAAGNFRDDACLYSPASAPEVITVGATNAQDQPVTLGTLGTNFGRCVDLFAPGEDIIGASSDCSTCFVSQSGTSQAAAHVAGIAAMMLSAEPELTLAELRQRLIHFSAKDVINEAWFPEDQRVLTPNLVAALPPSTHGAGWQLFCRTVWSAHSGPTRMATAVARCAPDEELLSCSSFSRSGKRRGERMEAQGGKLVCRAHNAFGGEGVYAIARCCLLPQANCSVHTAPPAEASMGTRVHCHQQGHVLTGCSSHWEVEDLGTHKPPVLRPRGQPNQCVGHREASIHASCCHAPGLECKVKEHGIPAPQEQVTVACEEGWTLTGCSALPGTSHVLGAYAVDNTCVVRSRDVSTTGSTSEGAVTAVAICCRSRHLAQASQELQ
In words: PCSK9 Alexa FRET Standard TR-FRET assay (displacement of AlexaFluor647 tagged cyclic peptide Reagent A). As to the method:
The following is a description of the assays used to determine activity of compounds of the invention, and any comparator compounds reported, toward PCSK9 antagonism. Biotinylated PCSK9 was obtained commercially.
Alexa FRET Standard TR-FRET
A solution containing 1 nM biotinylated PCSK9+2.5 nM Lance Streptavidin Europium (Strep-Eu) is made in 50 mM HEPES pH 7.4, 0.15 M NaCl, 5 mM CaCl2, 0.01% BSA, and 0.01% Surfactant P20. A separate solution containing 40 nM of the AlexaFluor tagged cyclic peptide is made in the same buffer system. An Echo is used to transfer 0.750 ul of compound to an assay plate followed by the addition of 15 ul of PCSK9+Stept-Eu and 15 ul of AF peptide. The final assay volume is 30.750 ul containing 0.5 nM PCSK9, 1.25 nM Strep-Eu, and 20 nM AF cyclic peptide. The reaction is incubated at room temperature for at least two hours prior to fluorescence measurements using an Envision Multilabel Reader. […] values are determined by fitting data to a sigmoidal dose-response curve using nonlinear regression. Ki is then calculated from the IC50 and the KD of AF cyclic peptide. Counts (B-counts) of the europium-labeled PCSK9 are followed to observe if compounds are adversely PCSK9. A fall off of the B-counts likely indicates a false positive of inhibition. Data from this procedure is reported as “A=‘numerical value’ (nanomolar)”
Activity data obtained by one or both of the above-described procedures is reported for selected example compounds of the invention in the following format: Example No.: A (standard TR Fret)=‘numerical value’; P (Alexa Fret plus standard TR Fret)=‘numerical value’/, note that all values reported are nanomolar.
A general note: TR-FRET usually uses a lanthanide donor and a delayed reading to cut background.

Experiment [2] addresses T1, PCSK9. Description: PCSK9 Alexa FRET Plus TR-FRET assay (displacement of AlexaFluor647 tagged cyclic peptide Reagent B). Conditions: for Ki: Ki Plus, 0.5 nM biotinylated PCSK9, 960 nM AF cyclic peptide Reagent B, Ki calculated from IC50 and KD of AF peptide. A digest of the protocol:
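TR-FRET displacement using 0.5 nM biotinylated PCSK9 with 1.25 nM streptavidin-Eu and 960 nM AlexaFluor-tagged cyclic peptide in pH 7.4 HEPES with CaCl2, at least 2 h at RT. IC50 from sigmoidal fit, converted to Ki using the peptide KD; falling Eu counts flag false positives.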

Experiment [3] deals with T1, PCSK9. In words: PCSK9 Alexa FRET Ultra TR-FRET assay (displacement of AlexaFluor647 tagged cyclic peptide). Conditions: for Ki: Ki Ultra, 0.5 nM biotinylated PCSK9, 960 nM AF cyclic peptide, Ki calculated from IC50 and KD of AF peptide. A digest of the protocol:
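Biotinylated PCSK9 (0.5 nM final) with 1.25 nM Strep-Eu and 960 nM AlexaFluor-tagged cyclic peptide in HEPES pH 7.4, NaCl, CaCl2, BSA, P20; ≥2 h at room temperature. IC50 from sigmoidal fit, converted to Ki (nM) using peptide KD; falling Eu counts flag false positives.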

What is called Ki is a measure of affinity in units of concentration, obtained from inhibition or displacement. The Kd is a measure of binding affinity in units of concentration.

Turning to `COc1ccc(C[C@@H]2NC(=O)[C@H]([C@@H](C)O)NC(=O)[C@@H]3[C@@H]4CCN3C(=O)[C@@H]3Cc5cn(c6ccc(F)cc56)CCCCCCN(Cc5ccc(cc5)CCNC(=O)[C@]5(C)CCCN5C2=O)C(=O)CCC(=O)N[C@@H](C)C(=O)N[C@H](CNC(=O)CCOCCOCCCN(C)C)C(=O)N[C@@H](Cc2cccc(c2)CNC(=O)CO4)C(=O)N3)cc1` [Ex-50], the figures for the Ki at PCSK9 [1], at PCSK9 [2] and at PCSK9 [3] were less than 1.26 nM, 0.0105 nM and 0.00443 nM, respectively.
Regarding `COc1ccc(C[C@@H]2NC(=O)[C@H]([C@@H](C)O)NC(=O)[C@@H]3[C@@H]4CCN3C(=O)[C@@H]3Cc5cn(c6ccc(F)cc56)C/C=C/CCCN(Cc5ccc(cc5)CCNC(=O)[C@]5(C)CCCN5C2=O)C(=O)CCC(=O)N[C@@H](C)C(=O)N[C@H](CN)C(=O)N[C@@H](Cc2cccc(c2)CNC(=O)CO4)C(=O)N3)cc1` [Ex-51], the Ki on PCSK9 [1] was less than 1.26 nM; on PCSK9 [2], less than 0.00558 nM; at PCSK9 [3] it was 0.00597 nM.
Turning to `COc1ccc(C[C@@H]2NC(=O)[C@H]([C@@H](C)O)NC(=O)[C@@H]3[C@@H]4CCN3C(=O)[C@@H]3Cc5cn(c6ccc(F)cc56)C/C=C/CCCN(Cc5ccc(cc5)CCNC(=O)[C@]5(C)CCCN5C2=O)C(=O)CCC(=O)N[C@@H](C)C(=O)N[C@H](CNC(=O)CCOCCOCC[N+](C)(C)C)C(=O)N[C@@H](Cc2cccc(c2)CNC(=O)CO4)C(=O)N3)cc1` [Ex-52], the inhibitory constant (Ki) is less than 1.26 nM at PCSK9 [1], less than 0.00558 nM at PCSK9 [2] and 0.00359 nM on PCSK9 [3].
For the molecule `COc1ccc(C[C@@H]2NC(=O)[C@H]([C@@H](C)O)NC(=O)[C@@H]3[C@@H]4CCN3C(=O)[C@@H]3Cc5cn(c6ccc(F)cc56)C/C=C/COc5cc(ccc5CNC(=O)CCC(=O)N[C@@H](C)C(=O)N[C@H](CN)C(=O)N[C@@H](Cc5cccc(c5)CNC(=O)CO4)C(=O)N3)CCNC(=O)[C@]3(C)CCCN3C2=O)cc1` [Ex-53], the Ki on PCSK9 [1] was less than 1.26 nM; at PCSK9 [2], 0.0963 nM; on PCSK9 [3], 0.215 nM.
On to `COc1ccc(C[C@@H]2NC(=O)[C@H]([C@@H](C)O)NC(=O)[C@@H]3[C@@H]4CCN3C(=O)[C@@H]3Cc5cn(c6ccc(F)cc56)CCCCOc5cc(ccc5CNC(=O)CCC(=O)N[C@@H](C)C(=O)N[C@H](CN)C(=O)N[C@@H](Cc5cccc(c5)CNC(=O)CO4)C(=O)N3)CCNC(=O)[C@]3(C)CCCN3C2=O)cc1` [Ex-54], for which the Ki on PCSK9 [1] is less than 1.26 nM; at PCSK9 [2], 0.367 nM; at PCSK9 [3] it was 0.484 nM.
`COc1ccc(C[C@@H]2NC(=O)[C@H]([C@@H](C)O)NC(=O)[C@@H]3[C@@H]4CCN3C(=O)[C@@H]3Cc5cn(c6ccc(F)cc56)CCCCOc5cc(ccc5CNC(=O)CCC(=O)N[C@@H](C)C(=O)N[C@H](CNC(=O)CCOCCOCC[N+](C)(C)C)C(=O)N[C@@H](Cc5cccc(c5)CNC(=O)CO4)C(=O)N3)CCNC(=O)[C@]3(C)CCCN3C2=O)cc1` [Ex-55]: the Ki on PCSK9 [1] is less than 1.26 nM; at PCSK9 [2] it was 0.0724 nM; on PCSK9 [3] it was 0.238 nM.
With `COc1ccc(C[C@@H]2NC(=O)[C@H]([C@@H](C)O)NC(=O)[C@@H]3[C@@H]4CCN3C(=O)[C@@H]3Cc5cn(c6ccc(F)cc56)CCCCCCN(Cc5ccc(cc5)CCNC(=O)[C@]5(C)CCCN5C2=O)C(=O)CCC(=O)N[C@@H](C)C(=O)N[C@H](CNC(=O)Cc2cccc(OCCC[N+](C)(C)C)c2)C(=O)N[C@@H](Cc2cccc(c2)CNC(=O)CO4)C(=O)N3)cc1` [Ex-56], the Ki at PCSK9 [1] is less than 1.26 nM; on PCSK9 [2] it was 0.0224 nM; at PCSK9 [3], 0.00481 nM.
With `COCCC[N+](C)(C)CCCCCC(=O)NC[C@H]1NC(=O)[C@H](C)NC(=O)CCC(=O)N2CCCCCCn3cc(c4cc(F)ccc43)C[C@@H]3NC(=O)[C@H](Cc4cccc(c4)CNC(=O)CO[C@H]4CCN(C3=O)[C@@H]4C(=O)N[C@@H]([C@@H](C)O)C(=O)N[C@@H](Cc3ccc(OC)cc3)C(=O)N3CCC[C@@]3(C)C(=O)NCCc3ccc(cc3)C2)NC1=O` [Ex-57], the inhibition constant Ki on PCSK9 [1] was less than 1.26 nM; on PCSK9 [2], less than 0.00558 nM; at PCSK9 [3] it was 0.00162 nM.
As to `COCC[N+](C)(C)CCCCCC(=O)NC[C@H]1NC(=O)[C@H](C)NC(=O)CCC(=O)N2CCCCCCn3cc(c4cc(F)ccc43)C[C@@H]3NC(=O)[C@H](Cc4cccc(c4)CNC(=O)CO[C@H]4CCN(C3=O)[C@@H]4C(=O)N[C@@H]([C@@H](C)O)C(=O)N[C@@H](Cc3ccc(OC)cc3)C(=O)N3CCC[C@@]3(C)C(=O)NCCc3ccc(cc3)C2)NC1=O` [Ex-58], the Ki on PCSK9 [1] was less than 1.26 nM; on PCSK9 [2], 0.00773 nM; at PCSK9 [3], 0.00196 nM.
On to `COc1ccc(C[C@@H]2NC(=O)[C@H](Cc3c[nH]cn3)NC(=O)[C@H](CC(=O)O)NC(=O)[C@H](Cc3c[nH]c4ccc(F)cc34)NC(=O)[C@H](Cc3c[nH]c4ccc(F)cc34)NC(=O)[C@@H](C)NC(=O)[C@H](CCCCNC(=O)CCCCCC3(C)/C(=C/C=C/C=C/C4=[N+](CCCS(=O)(=O)[O-])c5ccc(S(=O)(=O)O)cc5C4(C)C)N(CCCS(=O)(=O)O)c4ccc(S(=O)(=O)O)cc43)NC(=O)CCSCc3cccc(c3)CSC[C@@H](C(N)=O)NC(=O)[C@]3(C)CCCN3C2=O)cc1` (some centres unmarked) [Reagent B, reference compound] ([Mpa]K(X1)[dA][Trp(5-F)][Trp(5-F)]DHY(Me)[αMeP]C-NH2; linker 1-10 via mXylylene), for which the Kd at PCSK9 [2] (probe of the Alexa FRET Plus assay) was determined as 35 nM; on PCSK9 [3] (probe of the Alexa FRET Ultra assay) it was 0.99 nM.
